Assay results reported in ChEMBL document CHEMBL1201862, “PubChem BioAssay data set” (2004).
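Grown in 96-well plates, cells were treated for 48 hours with each compound at five concentrations. Insufficient inhibition: endpoint recorded as highest concentration tested. Abbreviation: GI50, concentration required for 50% inhibition of growth.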 Activity calls are given as the source filed them. No stated cut-off is given here; in the data, active = GI50 up to about 1.1 µM and inactive = higher.

Assays:
Experiment in all cases: NCI anticancer screen, dose series, 48 h
SK-MEL-5 = tested on: SK-MEL-5
NCI-H460 = tested on: NCI-H460
A498 = tested on: A498
SN12C = tested on: SN12C
SR = tested on: SR
SNB-75 = tested on: SNB-75
RXF 631 = tested on: RXF 631
SK-MEL-28 = tested on: SK-MEL-28
HCT-116 = tested on: HCT-116
TK-10 = tested on: TK-10
M14 = tested on: M14
OVCAR-5 = tested on: OVCAR-5
LOX IMVI = tested on: LOX IMVI
CAKI-1 = tested on: CAKI-1
SF-268 = tested on: SF-268
KM12 = tested on: KM12
DMS-114 = tested on: DMS-114
SW-620 = tested on: SW-620
HCC 2998 = tested on: HCC 2998
SNB-19 = tested on: SNB-19
HOP-92 = tested on: HOP-92
HOP-18 = tested on: HOP-18
ACHN = tested on: ACHN
RPMI-8226 = tested on: RPMI-8226
NCI-H23 = tested on: NCI-H23
OVCAR-4 = tested on: OVCAR-4
MOLT-4 = tested on: MOLT-4
DMS-273 = tested on: DMS-273
U-251 = tested on: U-251
786-0 = tested on: 786-0
NCI-H522 = tested on: NCI-H522
SF-295 = tested on: SF-295
HL-60 = tested on: HL-60
SK-MEL-2 = tested on: SK-MEL-2
RXF 393 = tested on: RXF 393
HT-29 = tested on: HT-29
XF498 = tested on: XF498
Malme-3M = tested on: Malme-3M
UACC-257 = tested on: UACC-257
CCRF-CEM = tested on: CCRF-CEM
A549 = tested on: A549
COLO 205 = tested on: COLO 205
NCI-H226 = tested on: NCI-H226
KM-20L2 = tested on: KM-20L2
SK-OV-3 = tested on: SK-OV-3
LXFL 529 = tested on: LXFL 529
HOP-62 = tested on: HOP-62
SNB-78 = tested on: SNB-78
HCT-15 = tested on: HCT-15
DLD-1 = tested on: DLD-1
IGROV-1 = tested on: IGROV-1
OVCAR-8 = tested on: OVCAR-8
UACC-62 = tested on: UACC-62
SF-539 = tested on: SF-539
OVCAR-3 = tested on: OVCAR-3
UO-31 = tested on: UO-31
M19-MEL = tested on: M19-MEL
EKVX = tested on: EKVX
K562 = tested on: K562

`O=[N+]([O-])c1nccn1COCCO` was tested, and the GI50 (SK-MEL-5) was > 100 µM (inactive), the GI50 (NCI-H460) was > 100 µM (inactive) and the GI50 (A498) was > 100 µM (inactive). The GI50 (SN12C) was > 100 µM (inactive), the GI50 (SR) was > 100 µM (inactive) and the GI50 (SNB-75) was > 100 µM (inactive). For the same compound, the GI50 (RXF 631) was > 100 µM (inactive), the GI50 (SK-MEL-28) was > 100 µM (inactive) and the GI50 (HCT-116) was > 100 µM (inactive). The GI50 (TK-10) was > 100 µM (inactive), the GI50 (M14) was > 100 µM (inactive) and the GI50 (OVCAR-5) was > 100 µM (inactive). For the same compound, the GI50 (LOX IMVI) was > 100 µM (inactive), the GI50 (CAKI-1) was > 100 µM (inactive) and the GI50 (SF-268) was > 100 µM (inactive). The GI50 (KM12) was > 100 µM (inactive), the GI50 (DMS-114) was > 100 µM (inactive) and the GI50 (SW-620) was > 100 µM (inactive). For the same compound, the GI50 (HCC 2998) was > 100 µM (inactive), the GI50 (SNB-19) was > 100 µM (inactive) and the GI50 (HOP-92) was > 100 µM (inactive). For the same compound, the GI50 (HOP-18) was 28.1 µM (inactive), the GI50 (ACHN) was > 100 µM (inactive) and the GI50 (RPMI-8226) was > 100 µM (inactive). For the same compound, the GI50 (NCI-H23) was > 100 µM (inactive), the GI50 (OVCAR-4) was > 100 µM (inactive) and the GI50 (MOLT-4) was 0.442 µM (active). For the same compound, the GI50 (DMS-273) was > 100 µM (inactive), the GI50 (U-251) was > 100 µM (inactive) and the GI50 (786-0) was > 100 µM (inactive). For the same compound, the GI50 (NCI-H522) was > 100 µM (inactive), the GI50 (SF-295) was > 100 µM (inactive) and the GI50 (HL-60) was > 100 µM (inactive). For the same compound, the GI50 (SK-MEL-2) was > 100 µM (inactive), the GI50 (RXF 393) was > 100 µM (inactive) and the GI50 (HT-29) was > 100 µM (inactive). The GI50 (XF498) was > 100 µM (inactive), the GI50 (Malme-3M) was > 100 µM (inactive) and the GI50 (UACC-257) was > 100 µM (inactive). For the same compound, the GI50 (CCRF-CEM) was > 100 µM (inactive), the GI50 (A549) was > 100 µM (inactive) and the GI50 (COLO 205) was > 100 µM (inactive). For the same compound, the GI50 (NCI-H226) was > 100 µM (inactive), the GI50 (KM-20L2) was > 100 µM (inactive) and the GI50 (SK-OV-3) was > 100 µM (inactive). For the same compound, the GI50 (LXFL 529) was > 100 µM (inactive), the GI50 (HOP-62) was > 100 µM (inactive) and the GI50 (SNB-78) was > 100 µM (inactive). For the same compound, the GI50 (HCT-15) was > 100 µM and the GI50 (DLD-1) was > 100 µM (inactive).
With `COc1ccc(/C(Cl)=C(\C=O)c2ccc(Cl)c(Cl)c2)cc1OC` the GI50 (SK-MEL-5) was 12.8 µM (inactive), the GI50 (NCI-H460) was 3.4 µM (inactive) and the GI50 (IGROV-1) was > 10 µM (inactive). The GI50 (A498) was 15.2 µM (inactive), the GI50 (SN12C) was 4.28 µM (inactive) and the GI50 (SNB-75) was 0.294 µM (active). The GI50 (RXF 631) was 4.57 µM (inactive), the GI50 (OVCAR-8) was 4.02 µM (inactive) and the GI50 (UACC-62) was 4.63 µM (inactive). For the same compound, the GI50 (SK-MEL-28) was 13.4 µM (inactive), the GI50 (HCT-116) was 4.18 µM (inactive) and the GI50 (TK-10) was 19 µM (inactive). The GI50 (M14) was 7.1 µM (inactive), the GI50 (SF-539) was 5.89 µM (inactive) and the GI50 (LOX IMVI) was 3.37 µM (inactive). The GI50 (CAKI-1) was 5.08 µM (inactive), the GI50 (SF-268) was 3.59 µM (inactive) and the GI50 (DMS-114) was 12.4 µM (inactive). The GI50 (SW-620) was 4.12 µM (inactive), the GI50 (SNB-19) was 14.9 µM (inactive) and the GI50 (HOP-92) was 2.69 µM (inactive). For the same compound, the GI50 (HOP-18) was 6.76 µM (inactive), the GI50 (ACHN) was 4.56 µM (inactive) and the GI50 (OVCAR-3) was 13.1 µM (inactive). For the same compound, the GI50 (RPMI-8226) was 2.08 µM (inactive), the GI50 (NCI-H23) was 2.9 µM (inactive) and the GI50 (MOLT-4) was 2.24 µM (inactive). For the same compound, the GI50 (UO-31) was 7.33 µM (inactive), the GI50 (DMS-273) was 6.73 µM (inactive) and the GI50 (U-251) was 4.34 µM (inactive). The GI50 (NCI-H522) was 2.36 µM (inactive), the GI50 (SF-295) was 3.79 µM (inactive) and the GI50 (HL-60) was 2.7 µM (inactive). For the same compound, the GI50 (M19-MEL) was 8.11 µM (inactive), the GI50 (SK-MEL-2) was 1.87 µM (inactive) and the GI50 (HT-29) was 2.47 µM (inactive). For the same compound, the GI50 (XF498) was 3.05 µM (inactive), the GI50 (Malme-3M) was 18.3 µM (inactive) and the GI50 (CCRF-CEM) was 2.73 µM (inactive). The GI50 (COLO 205) was 16.7 µM (inactive), the GI50 (NCI-H226) was 4.84 µM (inactive) and the GI50 (KM-20L2) was 6 µM (inactive). The GI50 (EKVX) was 9.53 µM (inactive), the GI50 (SK-OV-3) was 38.5 µM (inactive) and the GI50 (LXFL 529) was 3.55 µM (inactive). The GI50 (HOP-62) was 16.3 µM (inactive), the GI50 (K562) was 3.87 µM (inactive) and the GI50 (SNB-78) was 4.28 µM (inactive). For the same compound, the GI50 (HCT-15) was 4.34 µM and the GI50 (DLD-1) was 4.46 µM (inactive).
